Measured values from patent US12241090B2, “Methods and systems for converting precursor cells into gastric tissues through directed differentiation” (CHILDREN'S HOSPITAL MEDICAL CENTER, priority 2014, dated 2025).

What was measured:
[1] = system: human antral gastric organoids (hGOs); experiment: Growth, morphogenesis and endocrine cell specification of human antral gastric organoids at different EGF concentrations; format: cell-based
Experimental: (§1) Following DE induction, cells were treated for three days with growth factors/antagonists in RPMI 1640 with 2.0% dFBS. […] CHIR99021 is a small molecule that stimulates the Wnt signaling pathway. RA (2 μM; Sigma Aldrich) is added on the final day. Three-dimensional growth and antral specification. Posterior foregut spheroids were embedded in Matrigel (BD Biosciences) as previously described^10, 12 and subsequently grown in Advanced DMEM/F12 (Invitrogen) supplemented with N2 (Invitrogen), B27 (Invitrogen), L-glutamine, 10 μM HEPES, penicillin/streptomycin, and EGF (100 ng ml^−1; R&D Systems). For antral specification, RA and noggin were added for the first three days of three-dimensional growth. For endocrine cell specification, the EGF concentration is lowered to 10 ng ml^−1 at day 30.
The spheroids were transferred to a three-dimensional in vitro culture system as previously described5, 10, 12. Briefly, spheroids were collected, resuspended in 50 μl Matrigel (BD Biosciences), and plated in a three-dimensional droplet. After Matrigel was allowed to solidify for 10-15 minutes in a tissue culture incubator, spheroids were overlaid with gut media: Advanced DMEM/F12 with N2 (Invitrogen), B27 (Invitrogen), L-glutamine, 10 μM HEPES, penicillin/streptomycin, and EGF (100 ng ml^−1; R&D Systems). For the first three days, RA and Noggin were added to the gut media. Media was replaced every 3-4 days, as necessary. At day 20, organoids were collected and re-plated in fresh Matrigel at dilution of ˜1:12.
All tissues were fixed in 4% paraformaldehyde for either one hour at room temperature for frozen processing or overnight at 4° C. for paraffin processing. For frozen sections, tissue was protected in 30% sucrose overnight at 4° C., then embedded in OCT (Tissue-Tek), and cut at 10 μm. For paraffin sections, tissue was processed through a graded ethanol series, followed by xylene, and then embedded in paraffin and cut at 7 μm. Tissue culture cells were fixed for 15 minutes at room temperature and stained directly. For staining, frozen slides were thawed to room temperature and rehydrated in PBS, while paraffin slides were deparaffinized and subjected to antigen retrieval. Slides were blocked in 5% normal donkey serum (Jackson Immuno Research) in PBS plus 0.5% Triton-X for 30 minutes at room temperature. Primary antibodies (listed in Methods Table 1) were diluted in blocking buffer and incubated overnight at 4° C. Slides were washed in PBS and incubated with secondary antibody for one hour at room temperature, and coverslips were mounted using Fluoromount-G (Southern Biotech). Confocal images were captured on a Nikon A1Rsi inverted confocal microscope.
(§2) Analysis was performed using the ΔΔCT method.

[2] = system: posterior foregut spheroids; experiment: Three-dimensional culture of posterior foregut spheroids with RA, qPCR of organ lineage markers; format: cell-based, human; conditions: RA (2 μM) for 72 hours (days 6-9)
Experimental: as §1
The spheroids were transferred to a three-dimensional in vitro culture system as previously described5, 10, 12. Briefly, spheroids were collected, resuspended in 50 μl Matrigel (BD Biosciences), and plated in a three-dimensional droplet. After Matrigel was allowed to solidify for 10-15 minutes in a tissue culture incubator, spheroids were overlaid with gut media: Advanced DMEM/F12 with N2 (Invitrogen), B27 (Invitrogen), L-glutamine, 10 μM HEPES, penicillin/streptomycin, and EGF (100 ng ml^−1; R&D Systems). For the first three days, RA and Noggin were added to the gut media. […]

[3] = system: hPSC-derived foregut spheroids; experiment: Fundus specification protocol: Wnt signaling at days 6-9 of gastric organoid differentiation, qPCR; format: cell-based, human; conditions: CHIR 2 uM
Experimental: Next, the function of Wnt signaling in the regulation of fundus-antrum patterning at days 6-9 of the gastric organoid differentiation protocol was tested. Addition of Wnt3a (at 100 ng/mL and 500 ng/mL) had no effect on spheroid gene expression, but it […] expression of the Wnt target gene Axin2. Thus, the effects of the small molecule CHIR99021 (CHIR; 2 uM) were tested. CHIR99021 stimulates Wnt signaling in a receptor-independent fashion.
as §2

[4] = system: hPSC-derived definitive endoderm (DE) cultures; experiment: Endoderm patterning of hPSC-derived DE cultures with growth factors/antagonists, qPCR and immunofluorescence; format: cell-based, human; conditions: CHIR 2 μM, compared with recombinant WNT3A
Experimental: Following DE induction, cells were treated for three days with growth factors/antagonists in RPMI 1640 with 2.0% dFBS. […] RA (2 μM; Sigma Aldrich) is added on the final day. Three-dimensional growth and antral specification. Posterior foregut spheroids were embedded in Matrigel (BD Biosciences) as previously described^10, 12 and subsequently grown in Advanced DMEM/F12 (Invitrogen) supplemented with N2 (Invitrogen), B27 (Invitrogen), L-glutamine, 10 μM HEPES, penicillin/streptomycin, and EGF (100 ng ml^−1; R&D Systems). For antral specification, RA and noggin were added for the first three days of three-dimensional growth. For endocrine cell specification, the EGF concentration is lowered to 10 ng ml^−1 at day 30.
The media was changed every day.

With “EGF: growth factor EGF (R&D Systems) added to gut media” the endocrine cell formation ([1]; EGF 10 ng ml^−1 from day 30-34) was “abundance of endocrine cells”, the organoid diameter ([1]; EGF 100 ng mL^−1, over 3-4 weeks, from spheroids <100 μm) was 2-4 mm and the “endocrine cells per organoid” value ([1]; EGF 100 ng ml^−1, 34-day hGOs) was < 1 endocrine cell per organoid. The “expression of proendocrine transcription factor NEUROG3” value ([1]; high EGF (100 ng ml^−1), qPCR at day 34) was “inhibited”.
For `CC1=C(/C=C/C(C)=C/C=C/C(C)=C/C(=O)O)C(C)(C)CCC1` [RA, retinoic acid], the “increase in PDX1 mRNA levels” value [2] was over 100 fold.
For `Cc1c[nH]c(-c2cnc(NCCNc3ccc(C#N)cn3)nc2-c2ccc(Cl)cc2Cl)n1` [CHIR99021], the Pdx1 expression levels [3] was “robust repression”, the “expression of fundus-specific markers IRX3 and IRX5” value [3] was “induced high levels” and the “expression of the intestinal marker Cdx2” value [3] was “did not induce”. For the same compound, the “posteriorizing effects on endoderm” value [4] was “same posteriorizing effects as recombinant WNT3A”.
